# Assay results reported in ChEMBL document CHEMBL1137921, “Substrate analogs for the investigation of deoxyxylulose 5-phosphate reductoisomerase inhibition: synthesis and evaluation” (Bioorg Med Chem Lett, 2004).
# T1: 1-deoxy-D-xylulose 5-phosphate reductoisomerase (Synechocystis sp. (strain PCC 6803 / Kazusa), UniProt Q55663)
# T1 sequence (Q55663 whole entry): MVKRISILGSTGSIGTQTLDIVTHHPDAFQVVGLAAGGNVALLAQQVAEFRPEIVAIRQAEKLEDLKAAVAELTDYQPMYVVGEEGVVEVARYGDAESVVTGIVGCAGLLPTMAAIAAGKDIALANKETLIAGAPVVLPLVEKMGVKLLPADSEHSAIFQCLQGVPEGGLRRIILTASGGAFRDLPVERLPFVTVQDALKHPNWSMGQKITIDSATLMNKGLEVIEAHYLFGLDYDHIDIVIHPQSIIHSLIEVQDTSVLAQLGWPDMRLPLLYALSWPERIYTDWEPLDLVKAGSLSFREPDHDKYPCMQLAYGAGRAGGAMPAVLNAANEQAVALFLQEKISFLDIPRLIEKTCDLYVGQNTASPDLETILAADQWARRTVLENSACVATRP
# T2: 1-deoxy-D-xylulose 5-phosphate reductoisomerase (Escherichia coli K-12, UniProt P45568)
# T2 sequence (P45568 whole entry): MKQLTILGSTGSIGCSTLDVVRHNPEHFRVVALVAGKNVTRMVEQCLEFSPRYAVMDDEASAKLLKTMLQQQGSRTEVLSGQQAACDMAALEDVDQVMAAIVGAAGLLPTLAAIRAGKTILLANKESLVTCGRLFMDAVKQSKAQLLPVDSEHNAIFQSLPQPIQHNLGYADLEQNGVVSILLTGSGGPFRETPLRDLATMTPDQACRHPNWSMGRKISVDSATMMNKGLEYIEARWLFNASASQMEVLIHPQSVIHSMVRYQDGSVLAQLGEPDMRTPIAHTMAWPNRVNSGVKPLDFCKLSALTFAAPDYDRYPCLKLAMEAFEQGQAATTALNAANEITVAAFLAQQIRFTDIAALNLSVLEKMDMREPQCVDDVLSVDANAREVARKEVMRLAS
# What was measured:
# [1] = molecular target: T1, 1-deoxy-D-xylulose 5-phosphate reductoisomerase; assay: Binding affinity against Synechocystis strain PCC6803 DXP reductoisomerase; set-up: species or system Synechocystis sp. PCC 6803
# [2] = molecular target: T2, 1-deoxy-D-xylulose 5-phosphate reductoisomerase; assay: Inhibitory activity against Escherichia coli deoxyxylulose 5-phosphate reductoisomerase
# [3] = substrate: CC(=O)[C@@H](O)[C@H](O)CCP(=O)(O)O; assay: Michaelis-Menten constant for Synechocystis strain PCC6803 DXP reductoisomerase; conditions: Synechocystis sp. PCC 6803
Molecule,Ki [1] [µM],Ki [2] [µM],Km [3] [µM]
O=CN(O)CCCP(=O)(O)O [FOSMIDOMYCIN],0.021,–,–
CC(=O)[C@@H](O)CCOP(=O)(O)O,30,120,–
"1-deoxy-D-xylulose 5-phosphate reductoisomerase (Synechocystis sp. (strain PCC 6803 / Kazusa)), Q55663 (protein) MVKRISILGSTGSIGTQTLDIVTHHPDAFQVVGLAAGGNVALLAQQVAEFRPEIVAIRQAEKLEDLKAAVAELTDYQPMYVVGEEGVVEVARYGDAESVVTGIVGCAGLLPTMAAIAAGKDIALANKETLIAGAPVVLPLVEKMGVKLLPADSEHSAIFQCLQGVPEGGLRRIILTASGGAFRDLPVERLPFVTVQDALKHPNWSMGQKITIDSATLMNKGLEVIEAHYLFGLDYDHIDIVIHPQSIIHSLIEVQDTSVLAQLGWPDMRLPLLYALSWPERIYTDWEPLDLVKAGSLSFREPDHDKYPCMQLAYGAGRAGGAMPAVLNAANEQAVALFLQEKISFLDIPRLIEKTCDLYVGQNTASPDLETILAADQWARRTVLENSACVATRP",–,–,690

# Second part, led by results:
Ki [1] [µM],Ki [2] [µM],Molecule,Km [3] [µM]
630,–,CCC(=O)[C@@H](O)[C@H](O)COP(=O)(O)O,–
150,800,CC(=O)C[C@H](O)COP(=O)(O)O,–
90,–,NC(=O)[C@@H](O)[C@H](O)COP(=O)(O)O,–
180,–,CC(=O)[C@@H](O)[C@@H](O)COP(=O)(O)O,–
